Several values for one entry are separate records, joined by “and”; a condition that tells them apart may be missing. Equal values may be shown once.
Columns and labels:
[1] = species on record: Rattus norvegicus; assay: Evaluation of competition between CDH and compound using [3H]NANA as ligand in sialyltransferase assay at a concentration of 0.90 mM
[2] = species on record: Rattus norvegicus; assay: Evaluation of competition between CDH and compound using [3H]NANA as ligand in sialyltransferase assay at a concentration of 0.18 mM
[3] = species on record: Rattus norvegicus; assay: Evaluation of inhibition of CDH sialylation by the compound at a concentration of 0 mM; assay type: functional
[4] = species on record: Rattus norvegicus; assay: Evaluation of inhibition of CDH sialylation by the compound at a concentration of 0.9 mM; assay type: functional
[5] = Km from Lineweaver-Burke plot; assay type: ADME

Binding [1]: 8610 dpm
Binding [2]: 3850 dpm and 9480 dpm
Km [5]: 180 µM
Compound: O=C(CCCC[C@@H]1SC[C@@H]2NC(=O)N[C@@H]21)NCCCC[C@H](NC(=O)c1ccc(C2(C(F)(F)F)N=N2)cc1)C(=O)NCCO[C@@H]1O[C@@H](CO)[C@@H](O[C@@H]2O[C@@H](CO)[C@H](O)[C@H](O)[C@@H]2O)[C@H](O)[C@@H]1O
Inhibition [3]: 0%
Inhibition [4]: 64%

— ChEMBL document CHEMBL1128089, “A carbene-generating biotinylated lactosylceramide analog as novel photoreactive substrate for GM3 synthase” (Bioorg Med Chem Lett, 1995)
